Test results taken from patent US5540917A, “Biomass lipase inhibitor useful for treating adiposity” (Hoffmann-La Roche Inc., priority 1992, dated 1996).

Experiments:
fat absorption [1] = assay: Fat absorption from test meal in dogs (C-14 triolein recovery in feces), THL with or without cellulose; type: in vivo; conditions: for Triolein absorption in % of the applied dose: 26 g fat
From the text: Female dogs aged 7 to 15 years and having a body weight between 13 and 22 kg are divided into 2 groups each of 6 animals. The animals are fed with a standard dog food. The animals have free access to drinking water. The animals are given a test meal on the day of the test. This test meal contains as feed components 7.5% protein, 19% is carbohydrate, 6% fat, 1.6% minerals, 45% water and 20% ballast materials. The fat of the feed consists of 58% olive oil treated with C-14 triolein. The remaining fat is composed predominantly of saturated fatty acids. The absorption of the fat administered orally with the test diet was measured on the basis of the recovered radioactivity in the feces of the dogs. The difference between the orally-administered amount of C-14 labelled triolein and the radioactivity found in the feces within three days after intake of the test meal is considered to be absorbed fat. The absorbed amount is given as a percentage of the administered amount. The lower the absorption is, that is, the lower the percentage is, then the greater is the activity of the lipase inhibitor.

[2] = Consistency of feces of the dogs; type: in vivo
[3] = Blood plasma total glycerol in dogs after a test meal with THL and cellulose; type: in vivo; conditions: 50 mg THL + 80 g cellulose
From the text: Female dogs aged 7 to 15 years and having a body weight between 13 and 22 kg are divided into 2 groups each of 6 animals. The animals are fed with a standard dog food. The animals have free access to drinking water. The animals are given a test meal on the day of the test. This test meal contains as feed components 7.5% protein, 19% is carbohydrate, 6% fat, 1.6% minerals, 45% water and 20% ballast materials. The fat of the feed consists of 58% olive oil treated with C-14 triolein. The remaining fat is composed predominantly of saturated fatty acids. The blood plasma concentrations with respect to total glycerol of dogs which received test diet of 50 mg THL +80 g cellulose have been compared in Table 2 with those of a control without THL, but with cellulose.

fat absorption [4] = assay: Mouse test: fat absorption (C-14 triolein), pure LST versus LST in a fermentation cake; type: in vivo; conditions: oral, 3 mice
Procedure: Microbiologically-produced lipstatin (LST) is used as the lipase inhibitor in both parts of the test. LST is equivalent as a chemically pure substance with LST as a component of a fermentation cake produced according to Example 4 of EP 129 748. The content of LST in the cake was determined at 4 g of LST per kg of fresh fermentation cake using conventional analytical methods.
a) Mouse test Comparison of chemically pure LST with LST as a component of a fermentation cake.
Pure LST or the dried fermentation cake was suspended in 5% gum arabic/5% lactose preparation, conventional in pharmacological tests, and administered orally to animals, which had been pre-fasted for 24 hours, in an amount of 10 ml/kg per mouse immediately after a liquid test meal. The test meal contained 2.5% starch, 24% glucose, 12% lactose and 7.6% olive oil labelled with C-14 triolein. Thereafter, the mice received a conventional standard feed.
The calculation of the absorbed fat in the feed was carried out as described in Example 1.
The results of the test are reported in Table 3 in which the LST dose is calculated per mg/kg body weight. The values are average values calculated from measurements on, in each case, 3 mice per test.

fat absorption [5] = assay: Dog test: fat absorption (C-14 triolein), LST in the fermentation cake alone or with cellulose; type: in vivo, dogs; conditions: even when present in a fermentation cake; confirms mouse test
From the text: Female dogs aged 7 to 15 years and having a body weight between 13 and 22 kg are divided into 2 groups each of 6 animals. The animals are fed with a standard dog food. The animals have free access to drinking water.
The animals are given a test meal on the day of the test. This test meal contains as feed components 7.5% protein, 19% is carbohydrate, 6% fat, 1.6% minerals, 45% water and 20% ballast materials. The fat of the feed consists of 58% olive oil treated with C-14 triolein. The remaining fat is composed predominantly of saturated fatty acids.
The absorption of the fat administered orally with the test diet was measured on the basis of the recovered radioactivity in the feces of the dogs. The difference between the orally-administered amount of C-14 labelled triolein and the radioactivity found in the feces within three days after intake of the test meal is considered to be absorbed fat. The absorbed amount is given as a percentage of the administered amount. The lower the absorption is, that is, the lower the percentage is, then the greater is the activity of the lipase inhibitor.
Microbiologically-produced lipstatin (LST) is used as the lipase inhibitor in both parts of the test. […] The content of LST in the cake was determined at 4 g of LST per kg of fresh fermentation cake using conventional analytical methods. […]

fat absorption [6] = assay: Fat absorption (C-14 triolein) in mice on fat diet, single and repeated administration of LOC; type: in vivo, Albino mice; conditions: LOC 50 mg/kg body wt.
From the text: Determination of the activity of a lipase inhibitor using the lipstatin derivative LOC defined above, by way of example, on the fat s absorption from the feed in the case of single and repeated administration to mice was undertaken.
3 Albino mice weighing 25 g were used per dose in the test.
The mice received over several days a so-called fat diet in which the fat content was adjusted such that the mice received 23.4 g of fat per kg body wt. per day. The mice were fed with this feed for 8 days. On days 3 to 6 of the test C-14, labelled triolein and LOC in a dose of 50 mg/kg body weight were admixed with this feed. The feces of the mice was collected at intervals of 24 hours from days 4 to 8 of the test and evaluated according to the guidelines given in Example 1.
The control animals each received the test diet without the LOC active substance.
The absorption of the orally administered fat was measured as in Examples 1, and 2.

Question: Which attenuated fat absorption (fat absorption [1]; 50 mg THL + 80 g cellulose) does the source give for `CCCCCCCCCCC[C@@H](C[C@@H]1OC(=O)[C@H]1CCCCCC)OC(=O)[C@H](CC(C)C)NC=O` [THL, tetrahydrolipstatin] here?
Answer: The attenuated fat absorption was 28%.

Question: And the “Triolein absorption in % of the applied dose” value (fat absorption [1]; THL 20 mg/test meal (1.5 mg/kg body wt.) + 80 g cellulose, 420 g test meal)?
Answer: Its value is 48%.

Question: And the “Triolein absorption in % of the applied dose” value (fat absorption [1]; THL 20 mg/test meal (1.5 mg/kg body wt.), no cellulose, 340 g test meal)?
Answer: Its value is 70%.

Question: What about the “Triolein absorption in % of the applied dose” value (fat absorption [1]; THL 50 mg/test meal (4 mg/kg body wt.) + 80 g cellulose, 420 g test meal) of the same molecule?
Answer: The value was 28%.

Question: And the “Triolein absorption in % of the applied dose” value (fat absorption [1]; THL 50 mg/test meal (4 mg/kg body wt.), no cellulose, 340 g test meal)?
Answer: The value was 63%.

Question: And the “activity of the lipase inhibitor when cellulose is added” value (fat absorption [1]; THL + cellulose versus THL alone)?
Answer: The value was “considerably increased”.

Question: What about the “inhibition of the absorption of the administered radioactively labelled fat in the feed” value (fat absorption [1]; THL after addition of cellulose (about)) of the same molecule?
Answer: Its value is 52-70%.

Question: And the “reduction of the absorption of fat contained in the feed” value (fat absorption [1]; THL as sole additive to the test meal, depending on the dose (20 or 50 mg/meal))?
Answer: Its value is 30-37%.

Question: What about the “consistency of the feces” value ([2]; THL in combination with cellulose) of the same molecule?
Answer: The value was “solid and formed”.

Question: And the “consistency of the feces” value ([2]; THL without cellulose)?
Answer: Its value is “rather pulp-like”.

Question: What about the Total plasma glycerol ([3]; 3 hrs. after administration) of the same molecule?
Answer: The Total plasma glycerol was 0.5 ± 0.02 mmol/l ± SEM.

Question: And the Total plasma glycerol ([3]; 7 hrs. after administration)?
Answer: The Total plasma glycerol was 0.9 ± 0.13 mmol/l ± SEM.

Question: What about the Total plasma glycerol ([3]; before administration (starting value)) of the same molecule?
Answer: Its Total plasma glycerol is 0.7 ± 0.07 mmol/l ± SEM.

Question: And the plasma glycerol increase ([3]; 3 hours after test meal)?
Answer: Its plasma glycerol increase is “no increase”.

Question: What about the “increase in the absorption” value ([3]; 7 hours postprandial) of the same molecule?
Answer: Its value is “slight increase”.

Question: For `CCCCCCCCCCC[C@@H](C[C@@H]1OC(=O)[C@H]1CCCCCC)OC(=O)[C@H](CC(C)C)NC=O` [pure LST, lipstatin], which “Triolein absorption in % per dose administered” value (fat absorption [4]; LST dose 5.0 mg/kg) is on record?
Answer: The value was 69%.

Question: And the “Triolein absorption in % per dose administered” value (fat absorption [4]; LST dose 15 mg/kg)?
Answer: Its value is 52%.

Question: What about the “Triolein absorption in % per dose administered” value (fat absorption [4]; LST dose 50.0 mg/kg) of the same molecule?
Answer: The value was 41%.

Question: What about the lipase inhibitor activity (fat absorption [5]) of the same molecule?
Answer: The lipase inhibitor activity was “very active lipase inhibitor”.

Question: With `CCCCCCCCCCCCCCCCC[C@@H](C[C@@H]1OC(=O)[C@H]1CC)OC(=O)[C@H](CC(C)C)NC=O` [LOC, N-formyl-L-leucine (S)-1-[[(2S,3S)-3-ethyl-4-oxo-2-oxetanyl]methyl]octadecyl ester] as the molecule, how does the “Triolein absorption in % of the amount given orally (±SDM)” value (fat absorption [6]; 1st day) read?
Answer: The value was 26 ± 4%.

Question: What about the “Triolein absorption in % of the amount given orally (±SDM)” value (fat absorption [6]; 4th day) of the same molecule?
Answer: The value was 26 ± 3%.
